SMILES strings stand for the structures.

Assay [1] has as its system A2780 human ovary cancer cells. The assay can be described thus: MTT Cell Proliferation Assay. It counts as cell-based. The note with it: 72 hours, read-out: Percent of Control A2780. Here is the method:
(§1) The anti-proliferative activity of test compounds against human tumor cell lines is evaluated in vitro using the ATCC's MTT Cell Proliferation Assay (Catalog No. 30-100K). Cell lines are grown using media, serum, and culture conditions recommended by the ATCC. Stock cultures are allowed to grow to 70-80% confluence. Cells are seeded into 96-well culture plates at a predetermined density on day 0 in complete medium (0.1 mL). Plates are placed in a humidified incubator at 37° C. with 5% CO2 and 95% HEPA filtered room air for 24 hours. At this point compound (0.1 mL of 2× stock (in media)) is added to the indicated wells and the plates are returned to the incubator for 72 hours. Cell proliferation is measured by addition of MTT reagent to each well and incubated for an additional 4 hours, followed by addition of cell lysis/MTT solublization reagent and incubating overnight. […] Results are expressed as percent of control cells versus compound concentration. Compounds of the present invention, and salts thereof, were evaluated for anti-proliferative activity as described above.

Assay [2] concerns HCT-116 human colon cancer cells. As to the kind of experiment: MTT Cell Proliferation Assay. It counts as cell-based. The note with it: 72 hours, read-out: Percent of Control HCT-116. Here is the method: as §1
Assay [3] has as its system MDA-MB-231 human breast cancer cells. As to the kind of experiment: MTT Cell Proliferation Assay. Format: cell-based. The note with it: 72 hours, read-out: Percent of Control MDA-MB-231. Here is the method: as §1
Assay [4] concerns PC-3 human prostate cancer cells. The assay can be described thus: MTT Cell Proliferation Assay. It counts as cell-based. The note with it: 72 hours, read-out: Percent of Control PC-3. Here is the method: as §1
A further assay has as its target T1, hACC1 (Homo sapiens, UniProt Q13085).
T1 construct: PCR primers were designed for full-length hACC1 and hACC2 using GenBank submissions AY237919 and AJ575592, respectively; His tag (C); made in house; host or cells: baculovirus, Sf9 insect cells
The assay can be described thus: [14C]bicarbonate incorporation assay, overall ACC activity. It counts as biochemical. The note with it: recombinant hACC1, overall ACC activity. Here is the method: (§2) In vitro IC50 values of human ACC were determined using recombinant enzyme produced by standard procedures. For example, full-length cDNAs for both the human isoforms (hACC1 and hACC2) were each cloned and expressed as a recombinant protein using a baculovirus system. Double stranded cDNA from human fetal liver (Quick-Clone cDNA, cat. #7171-1) was purchased from BD/Clontech (Mt. View, Calif.). PCR primers were designed for full-length hACC1 and hACC2 using GenBank submissions AY237919 and AJ575592, respectively. The Advantage GC 2 PCR kit (BD/Clontech) was used for amplification. The PCR products (about 7 Kb) were TOPO-cloned into the pCR4Blunt vector (Invitrogen, Carlsbad, Calif.), and 6 clones of each gene were isolated. […] Full length versions of the two cDNAs corresponding to their respective Genbank sequences were assembled in pBluescript SK+ (Stratagene, La Jolla, Calif.) by combining error-free fragments from the PCR clones. The resulting hACC1 clone, designated pCS35, has six silent nucleotide differences compared to Genbank accession AY237919. The final hACC2 clone, designated pCS36, has ten silent nucleotide differences compared to Genbank accession AJ575592. Primers were designed to PCR amplify the cDNAs along with the in-frame 3′-his tag sequences from the pET vector and TOPO-cloned the resulting products into the Gateway® entry vector pENTR/D-TOPO. The ACC2 primers were designed to delete amino acids 1-148 and add Met-Gly in front of Lys149 in the final product. The resulting entry clones were transferred to BaculoDirect™ linear DNA (Invitrogen corp.) using the Gateway® LR recombination reaction. The recombinant baculovirus DNA was transfected into insect cells and viral amplification was performed according to the manufacturer's protocols. For protein expression sf9 cells were infected with a P3 viral stock in the presence of 50 uM biotin. The cells were harvested after 48-72 hr, lysed by sonication, and the resulting extract was clarified by centrifugation. ACC in the crude extract was concentrated by ammonium sulfate precipitation (40% w/v) and purified by Ni^2+-NTA chromatography (Novagen) followed by anion exchange chromatography on a UNO-Q column (BioRad).
(§3) Overall ACC activity in the hACC preparations is measured by following incorporation of [^14C]bicarbonate into […] essentially as described (Thumpy and Wakil, J Biol Chem 260, 6318-6323 (1985). Briefly, the reaction mixture (50 μL) contains: 50 mM Hepes (pH7.4), 20 mM K-Citrate, 20 mM Mg-Acetate 1.5 mM MgSO4, 2 mM DTT, 2 mM acetyl-CoA, 12 mM NaHCO3, 0.2 mM NaH^14CO3 (˜50 mCi/mmol), 0.01% (v/v) Triton X-100, 0.75 mg/mL BSA, 1% (v/v) DMSO (with or without inhibitor), and 0.3 μg (hACC1) or 0.15 μg (hACC2) enzyme. Reactions are initiated by the addition of ATP to a final concentration 2 mM. After 10 minutes at 37° C., the reaction is stopped by the addition of 2N HCl (50 μL). The samples are evaporated in a hood overnight, resuspended in H2O (200 μL), and incorporated label is quantified by scintillation counting in scintillation cocktail (3 mL). Inhibition data are fit to dose-response curves and IC50 values are reported (i.e. the concentration of inhibitor that gives 50% inhibition).

The target of the next assay is T2, hACC2 (Homo sapiens, UniProt O00763).
T2 construct: delete amino acids 1-148 and add Met-Gly in front of Lys149 in the final product; His tag (C); made in house; host or cells: baculovirus, Sf9 insect cells
T2 sequence (O00763 149-2458 limits assumed): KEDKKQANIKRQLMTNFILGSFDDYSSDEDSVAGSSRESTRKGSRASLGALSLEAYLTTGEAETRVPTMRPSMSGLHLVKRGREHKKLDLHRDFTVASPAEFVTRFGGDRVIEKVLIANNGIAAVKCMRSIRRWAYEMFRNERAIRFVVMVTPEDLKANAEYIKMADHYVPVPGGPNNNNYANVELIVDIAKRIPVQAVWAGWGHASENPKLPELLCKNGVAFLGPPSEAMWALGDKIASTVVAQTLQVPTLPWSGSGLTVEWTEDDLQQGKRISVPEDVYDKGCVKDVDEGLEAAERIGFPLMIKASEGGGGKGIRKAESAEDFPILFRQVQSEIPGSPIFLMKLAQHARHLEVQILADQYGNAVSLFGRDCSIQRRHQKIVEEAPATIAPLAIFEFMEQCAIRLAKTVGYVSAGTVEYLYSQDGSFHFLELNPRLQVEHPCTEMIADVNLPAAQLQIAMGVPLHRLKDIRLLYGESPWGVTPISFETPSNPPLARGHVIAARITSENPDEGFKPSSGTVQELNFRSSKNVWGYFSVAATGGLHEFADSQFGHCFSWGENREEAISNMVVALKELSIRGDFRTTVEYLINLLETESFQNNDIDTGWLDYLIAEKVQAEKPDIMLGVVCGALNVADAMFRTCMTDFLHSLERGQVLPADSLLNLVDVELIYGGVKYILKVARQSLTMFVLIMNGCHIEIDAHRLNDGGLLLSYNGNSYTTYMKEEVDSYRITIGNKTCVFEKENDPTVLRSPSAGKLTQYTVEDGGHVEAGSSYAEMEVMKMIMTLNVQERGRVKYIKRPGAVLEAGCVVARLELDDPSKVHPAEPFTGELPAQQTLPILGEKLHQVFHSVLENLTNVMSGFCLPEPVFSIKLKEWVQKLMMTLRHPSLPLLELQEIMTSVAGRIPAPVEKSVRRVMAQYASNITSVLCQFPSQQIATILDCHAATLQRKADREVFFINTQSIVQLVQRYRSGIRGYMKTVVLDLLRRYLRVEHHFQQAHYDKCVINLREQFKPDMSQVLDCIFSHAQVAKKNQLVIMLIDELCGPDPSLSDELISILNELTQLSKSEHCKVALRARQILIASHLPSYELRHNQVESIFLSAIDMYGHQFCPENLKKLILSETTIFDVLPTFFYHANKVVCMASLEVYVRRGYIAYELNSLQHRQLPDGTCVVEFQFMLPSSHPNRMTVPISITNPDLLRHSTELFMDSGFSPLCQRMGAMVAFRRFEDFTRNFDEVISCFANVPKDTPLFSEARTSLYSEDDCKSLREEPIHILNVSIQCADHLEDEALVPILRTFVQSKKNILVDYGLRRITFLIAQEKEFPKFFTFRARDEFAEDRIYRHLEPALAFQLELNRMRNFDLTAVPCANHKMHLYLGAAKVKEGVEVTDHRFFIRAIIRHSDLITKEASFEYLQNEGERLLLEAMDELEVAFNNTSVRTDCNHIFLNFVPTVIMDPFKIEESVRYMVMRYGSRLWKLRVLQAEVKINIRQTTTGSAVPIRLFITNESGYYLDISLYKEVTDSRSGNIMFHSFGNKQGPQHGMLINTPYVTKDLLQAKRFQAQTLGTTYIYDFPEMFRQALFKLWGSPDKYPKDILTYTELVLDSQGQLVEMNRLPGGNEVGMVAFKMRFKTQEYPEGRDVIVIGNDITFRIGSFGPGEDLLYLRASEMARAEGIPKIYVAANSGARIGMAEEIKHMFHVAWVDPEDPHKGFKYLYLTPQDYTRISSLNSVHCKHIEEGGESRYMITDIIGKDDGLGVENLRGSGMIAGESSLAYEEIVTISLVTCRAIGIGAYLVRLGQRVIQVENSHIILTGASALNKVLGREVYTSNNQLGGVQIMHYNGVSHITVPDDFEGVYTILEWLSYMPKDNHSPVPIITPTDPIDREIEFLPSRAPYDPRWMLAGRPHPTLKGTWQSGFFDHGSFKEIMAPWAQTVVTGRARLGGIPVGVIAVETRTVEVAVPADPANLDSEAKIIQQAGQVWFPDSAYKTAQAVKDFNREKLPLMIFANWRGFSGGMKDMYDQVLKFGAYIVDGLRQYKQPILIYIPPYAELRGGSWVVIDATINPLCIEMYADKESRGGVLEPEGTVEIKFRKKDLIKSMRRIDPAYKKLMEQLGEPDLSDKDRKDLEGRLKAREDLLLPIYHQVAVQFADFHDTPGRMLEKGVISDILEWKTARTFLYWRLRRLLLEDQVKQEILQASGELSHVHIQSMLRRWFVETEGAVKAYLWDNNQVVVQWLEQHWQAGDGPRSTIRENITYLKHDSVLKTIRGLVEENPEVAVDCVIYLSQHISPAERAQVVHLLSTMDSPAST
The assay is described as above. It counts as biochemical. As to conditions: recombinant hACC2, overall ACC activity. Here is the method:
as §2, §3

One may read the IC50 as the point on the concentration scale where inhibition reaches its midpoint. As to `COc1ccc2c(c1)C(=O)NC1(CCN(C(=O)c3cc(OC)c4cccc(OC)c4c3)CC1)N2` [Compound 187], the activity at 3.3 µM in assay [1] (3.3 uM) is 102%; in assay [2] (3.3 uM), 71%; in assay [3] (3.3 uM), 80.8%; in assay [4] (3.3 uM), 69.9%. Also, the activity at 10 µM turned out to be 64.9% in assay [1] (10.0 uM), 56.1% in assay [2] (10.0 uM), 45.6% in assay [3] (10.0 uM) and 52.2% in assay [4] (10.0 uM). Besides, on hACC1, the IC50 worked out at 87 nM.
`O=C1NC2(CCN(C(=O)c3cccc(-c4cc[nH]n4)c3)CC2)Oc2ccc(Br)cc21` [Compound 103, 6-Bromo-1′-[3-(1H-pyrazol-3-yl)benzoyl]spiro[2H-1,3-benzoxazin-2,4′-piperidin]-4-(3H)-one]: the IC50 on hACC2 was found to be 700 nM; on hACC1, 1300 nM.
Turning to `COc1ccc(OC)c2c1cc(C(=O)N1CCC3(CC1)NC(=O)c1cc(OC(C)C)ccc1O3)n2C` [Compound 185], the IC50 at hACC2 came to 83 nM; on hACC1 it was 90 nM.
As to `COc1cccc2c(C)c(C(=O)N3CCC4(CC3)NC(=O)c3cc(NC(C)=O)ccc3O4)[nH]c12` [Compound 24], the figures for the IC50 on hACC2 and on hACC1 were 77 nM and 100 nM, respectively.
The like results for `COc1cc(C(=O)N2CCC3(CC2)NC(=O)c2cc(NC(C)=O)ccc2O3)nc2c(SC)cccc12` [Compound 136] were, in that order, 55 nM and 75 nM.
For the compound `COc1cc(C(=O)N2CCC3(CC2)NC(=O)c2cc(C)ccc2O3)nc2c(SC)cccc12` [Compound 148], the half-inhibitory concentration (IC50) at hACC2 came out at 66 nM; at hACC1 it was 88 nM.
For the compound `COc1cc(C(=O)N2CCC3(CC2)NC(=O)c2cc(NC(C)=O)ccc2O3)cc2c(OC)cccc12` [Compound 31, 6-Acetamido-1′-[(4,8-dimethoxynaphth-2-yl)carbonyl]spiro[2H-1,3-benzoxazin-2,4′-piperidin]-4-(3H)-one], the IC50 at hACC2 turned out to be 3 nM; on hACC1 it was 6.2 nM.
The like results for `COc1cc(C(=O)N2CCC3(CC2)NC(=O)c2cc(C(C)C)ccc2O3)cc2[nH]ncc12` [Compound 231] were, in that order, 33 nM and 47 nM.
Turning to `COc1cc(C(=O)N2CCC3(CC2)NC(=O)c2cc(C)c(C)cc2O3)nc2c(OC)cccc12` [Compound 153], the half-maximal inhibitory concentration (IC50) on hACC2 turned out to be 16 nM; on hACC1, 35 nM.
`O=C1NC2(CCN(C(=O)c3ccc4[nH]nnc4c3)CC2)Oc2ccc(Br)cc21` [Compound 110, 1′-[(1H-benzotriazol-5-yl)carbonyl]-6-bromospiro[2H-1,3-benzoxazin-2,4′-piperidin]-4-(3H)-one]: the IC50 at hACC2 was 4600 nM; on hACC1, 6700 nM.
On to `COc1cc(C(=O)N2CCC3(CC2)NC(=O)c2cc4ccccc4cc2O3)cc2c(OC)cccc12` [Compound 160], for which the 50% inhibitory concentration (IC50) amounted to 3 nM at hACC2 and 4 nM at hACC1.
Consider `COc1cc(C(=O)N2CCC3(CC2)NC(=O)c2cc(C)c(C)cc2O3)cc2c(OC)cccc12` [Compound 155, 1′-[(4,8-Dimethoxynaphth-2-yl)carbonyl]-6,7-dimethylspiro[2H-1,3-benzoxazin-2,4′-piperidin]-4-(3H)-one], for which the IC50 on hACC2 turned out to be 4 nM; at hACC1 it was 5 nM.
The corresponding values for `CCOc1ccc2c(c1)C(=O)NC1(CCN(C(=O)c3cc(OC)c4cccc(SC)c4n3)CC1)O2` [Compound 149] are 25 nM and 35 nM.
For the compound `COc1cc(C(=O)N2CCC3(CC2)NC(=O)c2cc(C)ccc2O3)nc2c(OC)cccc12` [Compound 137], the half-maximal inhibitory concentration (IC50) on hACC2 was found to be 29 nM; at hACC1 it was 67 nM.
As to `COc1cc(C(=O)N2CCC3(CC2)NC(=O)c2cc(Cl)ccc2O3)cc2c(OC)cccc12` [Compound 171], the IC50 amounted to 14 nM on hACC2 and 28 nM on hACC1.
For `COc1cc(C(=O)N2CCC3(CC2)NC(=O)c2cc4ccccc4cc2O3)nc2c(OC)cccc12` [Compound 159], the IC50 at hACC2 stood at 5 nM; on hACC1, 4 nM.
Consider `COc1cccc2c(C)c(C(=O)N3CCC4(CC3)NC(=O)c3cc(Br)ccc3O4)[nH]c12` [Compound 23], for which the IC50 on hACC2 turned out to be 180 nM; at hACC1, 140 nM.
Turning to `COc1cccc2c(C)c(C(=O)N3CCC4(CC3)NC(=O)c3cc(C)ccc3O4)[nH]c12` [Compound 143], the IC50 on hACC2 was 190 nM; at hACC1 it was 130 nM.
For `COc1ccc2cc3c(cc2c1)C(=O)NC1(CCN(C(=O)c2[nH]c4c(OC)cccc4c2C)CC1)O3` [Compound 166, 7-Methoxy-1′-[[7-methoxy-3-methyl-1H-indol-2-yl)carbonyl]spiro[2H-naphtho[2,3-e]-1,3-oxazin-2,4′-piperidin]-4-(3H)-one], the results for the IC50 at hACC2 and on hACC1 were 31 nM and 36 nM, respectively.
For `COc1ccc2c(c1)C(=O)NC1(CCN(C(=O)c3cc(OC)c4cccc(SC)c4n3)CC1)O2` [Compound 157], the half-inhibitory concentration (IC50) was found to be 48 nM on hACC2 and 33 nM on hACC1.
`COc1cc(C(=O)N2CCC3(CC2)NC(=O)c2cc(Br)ccc2N3)nc2c(OC)cccc12` [Compound 71, 6′-Bromo-1-[(4,8-dimethoxyquinoline-2-yl)carbonyl]spiro[piperidine-4,2′(1′H)-quinazolin]-4′-(3′H)-one]: the values for the half-inhibitory concentration (IC50) on hACC2 and at hACC1 were 490 nM and 1000 nM, respectively.
With `O=C1NC2(CCN(C(=O)c3ccc4[nH]cnc4c3)CC2)Oc2ccc(Br)cc21` [Compound 109, 1′-[(1H-benzimidazol-5-yl)carbonyl]-6-bromospiro[2H-1,3-benzoxazin-2,4′-piperidin]-4-(3H)-one], the half-inhibitory concentration (IC50) was determined as 2900 nM on hACC2 and 600 nM on hACC1.
Take `COc1cc(C(=O)N2CCC3(CC2)NC(=O)c2cc(Br)ccc2N3)nc2c(SC)cccc12` [Compound 93]: the IC50 on hACC2 was found to be 1100 nM; on hACC1, 430 nM.
Consider `COc1cc2c(OC)cccc2cc1C(=O)N1CCC2(CC1)NC(=O)c1cc(Br)ccc1N2` [Compound 90], for which the IC50 is 1100 nM at hACC2 and 2200 nM on hACC1.

The values are drawn from patent US8110570B2, “Modulators of acetyl-coenzyme A carboxylase and methods of use thereof” (Cropsolution, Inc., priority 2008, dated 2012).
